Source: patent US9274102B2, “Method of screening for an inhibitor of odor cause by furaneol” (Kao Corporation, priority 2013, dated 2016)

Target: T1, olfactory receptor OR5K1 (Homo sapiens, UniProt Q8NHB7)
T1 construct: Flag-Rho tag (N); expressed in transfected cells; host or cells: HEK293
T1 sequence (Q8NHB7 1-308): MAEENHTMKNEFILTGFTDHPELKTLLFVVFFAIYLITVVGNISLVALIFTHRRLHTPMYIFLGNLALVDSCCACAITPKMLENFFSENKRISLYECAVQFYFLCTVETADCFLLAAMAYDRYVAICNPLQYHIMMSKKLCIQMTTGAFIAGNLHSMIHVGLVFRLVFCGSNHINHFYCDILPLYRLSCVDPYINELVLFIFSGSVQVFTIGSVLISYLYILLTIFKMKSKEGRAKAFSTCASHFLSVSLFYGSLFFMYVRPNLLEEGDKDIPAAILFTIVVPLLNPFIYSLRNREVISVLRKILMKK
Assay: Luciferase reporter gene assay: response of olfactory receptors expressed on HEK293 cells to Furaneol
Assay type: cell-based
Conditions: Furaneol 0, 3, 10, 30, 100, 300, 1000 and 3000 μM; OR5K1 with human RTP1S on HEK293 cells; FIG. 2
Method: HEK293 cells expressing each of 400 types of human olfactory receptors were prepared. Each reaction solution having the composition shown in Table 1 was prepared, then left standing for 15 minutes in a clean bench, and then added to each well of a 96-well plate (Becton, Dickinson and Company). Subsequently, the HEK293 cells (3×10^5 cells/cm^2) were inoculated thereto at 100 μL/well and then cultured at 37° C. for 24 hours in an incubator kept at 5% CO2.
The olfactory receptors expressed on the HEK293 cells are conjugated with intracellular Gαs to activate adenylate cyclase, thereby increasing intracellular cAMP levels. In this study, their responses to Furaneol were measured using luciferase reporter gene assay which involved monitoring increase in intracellular cAMP level as luminescence intensity derived from a firefly luciferase gene (fluc2P-CRE-hygro). […]
A medium was removed from the cultures prepared in the preceding paragraph 3). […] The luciferase activity was measured using Dual-Glo™ luciferase assay system (Promega Corp.) according to the instruction manual of the product. Firefly luciferase-derived luminescence intensity induced by stimulation with Furaneol was divided by luminescence intensity in the cells without Furaneol stimulation to calculate a value as fold increase, which was in turn used as an index for response intensity. […]

In the case of CC1=C(O)C(=O)C(C)O1 (centres unmarked) [Furaneol, 2,5-dimethyl-4-hydroxy-3(2H)-furanone], the “concentration dependence of OR5K1 response to Furaneol” value is reported as “concentration-dependent response”.

Same assay, conditions: Furaneol 3 mM; 400 types of human olfactory receptors screened in HEK293 cells; FIG. 1

In the case of CC1=C(O)C(=O)C(C)O1 (centres unmarked) [Furaneol, 2,5-dimethyl-4-hydroxy-3(2H)-furanone], the “response of olfactory receptor to Furaneol (fold increase of luminescence)” value is reported as “only the olfactory receptor OR5K1 exhibited a response”.

Target: T1, olfactory receptor OR5K1
Assay: Antagonistic activity against the response of OR5K1 to Furaneol (luciferase reporter gene assay, HEK293 cells)
Assay type: cell-based
Conditions: Furaneol 3 mM, test substance 100 μM; OR5K1-expressing HEK293 cells; read-out: rate of inhibition of the response of OR5K1 to Furaneol
Method: 84 types of test substances were examined for their antagonistic activity against the response of the olfactory receptor OR5K1 to Furaneol.
Furaneol (3 mM) and each test substance (100 μM) were added to HEK293 cells allowed to express the olfactory receptor OR5K1 by the same procedures as in Example 2. The response of the olfactory receptor was measured to evaluate change in receptor response caused by the addition of the test substance.
The rate of inhibition of the receptor response by the test substance was calculated as follows: firefly luciferase-derived luminescence intensity (Y) in the olfactory receptor OR5K1-expressing cells without Furaneol stimulation was subtracted from firefly luciferase-derived luminescence intensity (X) induced by stimulation with Furaneol alone to determine receptor activity (X−Y) based on the stimulation with Furaneol alone. Likewise, the luminescence intensity (Y) in the cells without Furaneol stimulation was subtracted from luminescence intensity (Z) induced by stimulation with the mixture of Furaneol and the test substance to determine receptor activity (Z−Y) in the presence of the test substance. The rate of reduction in the receptor activity (Z−Y) in the presence of the test substance with respect to the receptor activity (X−Y) based on the stimulation with Furaneol alone was calculated according to an expression shown below to determine the rate of inhibition of the receptor response by the test substance. In this assay, a plurality of independent duplicate experiments were performed. An average of the experiments in each run was obtained. Rate of inhibition (%)={1−(Z−Y)/(X−Y)}×100

CC(=O)O[C@]1(C)CC[C@@]23C[C@@H]1C(C)(C)[C@@H]2CC[C@H]3C [Cedryl acetate] and CC(=O)C1=C(C)C2CC3(C1)C(C)CCC3C2(C)C (centres unmarked) [acetylcedrene, 1-(2,3,4,7,8,8a-hexahydro-3,6,8,8-tetramethyl-1H-3a,7-methanoazulen-5-yl)-ethanone] cannot be ordered by inhibition at 100 µM: at least 50% for the first, at least 75% for the second.

CC(C)=CCCC(C)=CC=O [Citral] and CC(C)(C)c1ccc(CCC=O)cc1 [bourgeonal, 3-(4-tert-Butylphenyl)propanal] cannot be ordered by inhibition at 100 µM: at least 75% for the first, at least 75% for the second.

CC(=O)C1(C)CC2=C(CCCC2(C)C)CC1C (centres unmarked) [Iso E Super, 7-Acetyl-1,2,3,4,5,6,7,8-octahydro-1,1,6,7-tetramethyl-naphthalene] and CC(=O)c1cc2c(cc1C)C(C)(C)C(C)CC2(C)C [Tonalid(R), 1-(5,6,7,8-tetrahydro-3,5,5,6,8,8-hexamethyl-2-naphthalenyl)-ethanone] cannot be ordered by inhibition at 100 µM: at least 75% for the first, at least 75% for the second.

CC1(CO)CC1CC1CC2CC2(C)C1(C)C [Javanol(R), (1-Methyl-2-(1,2,2-trimethylbicyclo[3.1.0]-hex-3-ylmethyl)cyclopropyl)methanol] and CCC(=CCC1CC=C(C)C1(C)C)CO (centres unmarked) [bangalol, 2-Ethyl-4-(2,2,3-trimethyl-3-cyclopenten-1-yl)-2-buten-1-ol] cannot be ordered by inhibition at 100 µM: at least 40% for the first, at least 50% for the second.

CC1C/C=C/CCCCCCCCCC(=O)C1 [Muscenone(R) Delta, (5E)-3-Methylcyclopentadec-5-en-1-one] and CC(=O)/C(C)=C/C1C(C)=CCCC1(C)C (centres unmarked) [methyl ionone-G, (E)-3-Methyl-4-(2,6,6-trimethylcyclohex-2-en-1-yl)but-3-en-2-one] cannot be ordered by inhibition at 100 µM: at least 75% for the first, at least 75% for the second.

CC1COCc2cc3c(cc21)C(C)(C)C(C)C3(C)C (centres unmarked) [galaxolide, 4,6,6,7,8,8-Hexamethyl-1,3,4,6,7,8-hexahydrocyclopenta[g]isochromene] and Cc1ccc(C(C)C)c(O)c1 [thymol, 5-Methyl-2-(1-methylethyl)-phenol] cannot be ordered by inhibition at 100 µM: at least 75% for the first, at least 75% for the second.
